Measured values taken from ChEMBL document CHEMBL3045429, “Exploration of antimicrobial potential of pyrazolo[3,4-b]pyridine scaffold bearing benzenesulfonamide and trifluoromethyl moieties” (2013).
Converted amounts (≈) assume the structure as drawn. The source made the active and inactive calls. The calls are words filed in the database; no cut-off is given here.

What was measured:
[1] = tested on: Staphylococcus aureus; experiment: Antibacterial activity against Staphylococcus aureus MTCC 96 assessed as growth inhibition after 24 hr by agar well diffusion method; assay type: functional; details: MTCC 96, 24 h
[2] = tested on: Saccharomyces cerevisiae; experiment: Antifungal activity against Saccharomyces cerevisiae MTCC 170 assessed as growth inhibition after 24 hr by agar well diffusion method; assay type: functional; details: MTCC 170, 24 h
[3] = tested on: Saccharomyces cerevisiae; experiment: Antifungal activity against Saccharomyces cerevisiae MTCC 170 assessed as growth inhibition at 4 mg/mL after 24 hr by agar well diffusion method; assay type: functional; details: for zone of inhibition at 4000 µg/mL: MTCC 170, 24 h, read-out: DIZ
[4] = tested on: Bacillus subtilis; experiment: Antibacterial activity against Bacillus subtilis MTCC 121 assessed as growth inhibition at 4 mg/mL after 24 hr by agar well diffusion method; assay type: functional; details: for zone of inhibition at 4000 µg/mL: MTCC 121, 24 h, read-out: DIZ
[5] = tested on: Candida albicans; experiment: Antifungal activity against Candida albicans MTCC 227 assessed as growth inhibition after 24 hr by agar well diffusion method; assay type: functional; details: MTCC 227, 24 h
[6] = tested on: Bacillus subtilis; experiment: Antibacterial activity against Bacillus subtilis MTCC 121 assessed as growth inhibition after 24 hr by agar well diffusion method; assay type: functional; details: MTCC 121, 24 h
[7] = tested on: Staphylococcus aureus; experiment: Antibacterial activity against Staphylococcus aureus MTCC 96 assessed as growth inhibition at 4 mg/mL after 24 hr by agar well diffusion method; assay type: functional; details: for zone of inhibition at 4000 µg/mL: MTCC 96, 24 h, read-out: DIZ
[8] = tested on: Escherichia coli; experiment: Antibacterial activity against Escherichia coli MTCC 1652 assessed as growth inhibition at 4 mg/mL after 24 hr by agar well diffusion method; assay type: functional, organism-based
[9] = tested on: Candida albicans; experiment: Antifungal activity against Candida albicans MTCC 227 assessed as growth inhibition at 4 mg/mL after 24 hr by agar well diffusion method; assay type: functional; details: for zone of inhibition at 4000 µg/mL: MTCC 227, 24 h, read-out: DIZ

Compound | MIC [1] [µg/mL] | MIC [2] [µg/mL] | zone of inhibition at 4000 µg/mL [3] [mm] | zone of inhibition at 4000 µg/mL [4] [mm] | MIC [5] [µg/mL] | MIC [6] [µg/mL] | zone of inhibition at 4000 µg/mL [7] [mm] | growth inhibition (GI) [8] | zone of inhibition at 4000 µg/mL [9] [mm] | growth inhibition (GI) [3] | growth inhibition (GI) [9] | growth inhibition (GI) [4] | growth inhibition (GI) [7]
NS(=O)(=O)c1ccc(-n2nc(-c3ccccc3)c3c(C(F)(F)F)cc(-c4ccc(F)cc4)nc32)cc1 | 128 (≈ 250 µM) | 64 (≈ 125 µM) | 15.3 | 19.6 | 128 (≈ 250 µM) | 64 (≈ 125 µM) | 17.6 | inactive | 14.6 |  |  |  | 
Cc1ccc(-c2nn(-c3ccc(S(N)(=O)=O)cc3)c3nc(-c4ccc5ccccc5c4)cc(C(F)(F)F)c23)cc1 | 128 (≈ 229 µM) | 32 (≈ 57.3 µM) | 15.6 | 15.6 | 32 (≈ 57.3 µM) | 128 (≈ 229 µM) | 15.6 | inactive | 18.3 |  |  |  | 
Cc1ccc(-c2cc(C(F)(F)F)c3c(-c4ccc(C)cc4)nn(-c4ccc(S(N)(=O)=O)cc4)c3n2)cc1 | 128 (≈ 245 µM) |  |  | 16.3 |  | 128 (≈ 245 µM) | 15.3 | inactive |  | inactive | inactive |  | 
Cc1cc(C(F)(F)F)c2c(-c3ccccc3)nn(-c3ccc(S(N)(=O)=O)cc3)c2n1 | 64 (≈ 148 µM) | 64 (≈ 148 µM) | 15.3 | 20.3 | 64 (≈ 148 µM) | 64 (≈ 148 µM) | 19.3 | inactive | 16.3 |  |  |  | 
Cc1ccc(-c2nn(-c3ccc(S(N)(=O)=O)cc3)c3nc(C(F)(F)F)cc(C(F)(F)F)c23)cc1 | 128 (≈ 256 µM) |  |  | 16.6 |  | 128 (≈ 256 µM) | 15.6 | inactive |  | inactive | inactive |  | 
Cc1ccc(-c2nn(-c3ccc(S(N)(=O)=O)cc3)c3nc(C)cc(C(F)(F)F)c23)cc1 | 128 (≈ 287 µM) |  |  | 16.3 |  | 128 (≈ 287 µM) | 15.3 | inactive |  | inactive | inactive |  | 
NS(=O)(=O)c1ccc(-n2nc(-c3ccccc3)c3c(C(F)(F)F)cc(-c4ccc5ccccc5c4)nc32)cc1 | 256 (≈ 470 µM) |  |  | 14.6 |  | 256 (≈ 470 µM) | 13.6 | inactive |  | inactive | inactive |  | 
Cc1cc(C(F)(F)F)c2c(-c3ccc(Cl)cc3)nn(-c3ccc(S(N)(=O)=O)cc3)c2n1 | 64 (≈ 137 µM) |  |  | 17.6 |  | 128 (≈ 274 µM) | 18.6 | inactive |  | inactive | inactive |  | 
NS(=O)(=O)c1ccc(-n2nc(-c3ccc(Cl)cc3)c3c(C(F)(F)F)cc(-c4ccc(Cl)cc4)nc32)cc1 |  |  |  |  |  |  |  | inactive |  | inactive | inactive | inactive | inactive
COc1ccc(-c2cc(C(F)(F)F)c3c(-c4ccccc4)nn(-c4ccc(S(N)(=O)=O)cc4)c3n2)cc1 | 64 (≈ 122 µM) | 256 (≈ 488 µM) | 14.6 | 21.6 | 128 (≈ 244 µM) | 32 (≈ 61 µM) | 19.3 | inactive | 15.6 |  |  |  | 
NS(=O)(=O)c1ccc(-n2nc(-c3ccccc3)c3c(C(F)(F)F)cc(-c4ccc(Cl)cc4)nc32)cc1 | 128 (≈ 242 µM) |  |  | 16.3 |  | 128 (≈ 242 µM) | 15 | inactive |  | inactive | inactive |  | 
Cc1ccc(-c2nn(-c3ccc(S(N)(=O)=O)cc3)c3nc(-c4ccc(F)cc4)cc(C(F)(F)F)c23)cc1 | > 256 |  |  | 15.6 |  | 128 (≈ 243 µM) | 13.6 | inactive |  | inactive | inactive |  | 
COc1ccc(-c2cc(C(F)(F)F)c3c(-c4ccc(Cl)cc4)nn(-c4ccc(S(N)(=O)=O)cc4)c3n2)cc1 |  |  |  |  |  |  |  | inactive |  | inactive | inactive | inactive | inactive
Cc1ccc(-c2cc(C(F)(F)F)c3c(-c4ccc(Cl)cc4)nn(-c4ccc(S(N)(=O)=O)cc4)c3n2)cc1 |  |  |  |  |  |  |  | inactive |  | inactive | inactive | inactive | inactive
Cc1ccc(-c2nn(-c3ccc(S(N)(=O)=O)cc3)c3nc(-c4ccccc4)cc(C(F)(F)F)c23)cc1 | 64 (≈ 126 µM) |  |  | 17.6 |  | 128 (≈ 252 µM) | 18.3 | inactive |  | inactive | inactive |  | 
Cc1ccc(-c2nn(-c3ccc(S(N)(=O)=O)cc3)c3nc(-c4ccc(Br)cc4)cc(C(F)(F)F)c23)cc1 | 256 (≈ 436 µM) |  |  | 15.6 |  | 128 (≈ 218 µM) | 14.3 | inactive |  | inactive | inactive |  | 
Cc1ccc(-c2cc(C(F)(F)F)c3c(-c4ccccc4)nn(-c4ccc(S(N)(=O)=O)cc4)c3n2)cc1 | 32 (≈ 62.9 µM) | 64 (≈ 126 µM) | 15.6 | 20.3 | 64 (≈ 126 µM) | 64 (≈ 126 µM) | 21.3 | inactive | 16.3 |  |  |  | 
COc1ccc(-c2cc(C(F)(F)F)c3c(-c4ccc(C)cc4)nn(-c4ccc(S(N)(=O)=O)cc4)c3n2)cc1 | 256 (≈ 475 µM) |  |  | 17.3 |  | 128 (≈ 238 µM) | 14.6 | inactive |  | inactive | inactive |  | 
NS(=O)(=O)c1ccc(-n2nc(-c3ccccc3)c3c(C(F)(F)F)cc(-c4ccccc4)nc32)cc1 | 64 (≈ 129 µM) | 64 (≈ 129 µM) | 16.3 | 17 | 64 (≈ 129 µM) | 128 (≈ 259 µM) | 18.6 | inactive | 15.3 |  |  |  | 
NS(=O)(=O)c1ccc(-n2nc(-c3ccccc3)c3c(C(F)(F)F)cc(C(F)(F)F)nc32)cc1 | 32 (≈ 65.8 µM) | 128 (≈ 263 µM) | 14.6 | 21.6 | 64 (≈ 132 µM) | 32 (≈ 65.8 µM) | 22.6 | inactive | 15.6 |  |  |  | 
NS(=O)(=O)c1ccc(-n2nc(-c3ccc(Cl)cc3)c3c(C(F)(F)F)cc(-c4ccccc4)nc32)cc1 |  |  |  |  |  |  |  | inactive |  | inactive | inactive | inactive | inactive
NS(=O)(=O)c1ccc(-n2nc(-c3ccc(Cl)cc3)c3c(C(F)(F)F)cc(-c4ccc(Br)cc4)nc32)cc1 |  |  |  |  |  |  |  | inactive |  | inactive | inactive | inactive | inactive
NS(=O)(=O)c1ccc(-n2nc(-c3ccc(Cl)cc3)c3c(C(F)(F)F)cc(-c4ccc5ccccc5c4)nc32)cc1 | 128 (≈ 221 µM) |  |  | 16.3 |  | 128 (≈ 221 µM) | 15.3 | inactive |  | inactive | inactive |  | 
Cc1ccc(-c2nn(-c3ccc(S(N)(=O)=O)cc3)c3nc(-c4ccc(Cl)cc4)cc(C(F)(F)F)c23)cc1 | 128 (≈ 236 µM) |  |  | 16.3 |  | 128 (≈ 236 µM) | 15.6 | inactive |  | inactive | inactive |  | 
NS(=O)(=O)c1ccc(-n2nc(-c3ccc(Cl)cc3)c3c(C(F)(F)F)cc(-c4ccc(F)cc4)nc32)cc1 |  |  |  |  |  |  |  | inactive |  | inactive | inactive | inactive | inactive
C[C@@H]1[C@H](O)[C@@H](C)/C=C/C=C/C=C/C=C/C=C/C=C/C=C/[C@H](O[C@@H]2O[C@H](C)[C@@H](O)[C@H](N)[C@@H]2O)C[C@@H]2O[C@](O)(C[C@@H](O)C[C@@H](O)[C@H](O)CC[C@@H](O)C[C@@H](O)CC(=O)O[C@H]1C)C[C@H](O)[C@H]2C(=O)O [AMPHOTERICIN B] |  | 20 (≈ 21.6 µM) | 19.3 |  | 20 (≈ 21.6 µM) |  |  |  | 16.6 |  |  |  | 
